Measurements: patent publication US11833119B2, “Combination therapies for the treatment of hepatocellular carcinoma” (priority 2018, dated 2023)

What was measured:
[1] = tested on: LIX125, a hepatocellular carcinoma patient derived xenograft (PDX) model; assay: LIX125 PDX xenograft in vivo study, antitumor activity; settings: 32 days
Experimental: The human primary hepatocellular model LIX125 from ChemPartner (shangpharma.com) was implanted into the female severe combined immunodeficiency (SCID) mice. When the tumors developed in mice, they were sacrificed and the resected tumors were implanted into female NU/NU mice for tumor preservation, histological diagnosis and in vivo efficacy study. Solid tumor tissues were depleted of necrotic components, cut into 10-15 mg pieces and mixed. Three to five pieces were mixed with […] Matrigel and implanted into a flank of 6-8 week old female NU/NU immune compromised mice weighing 18-20 g. All of the primary tumors utilized in this study had undergone 3 to 5 passages in vivo and the tumor histology of each was maintained over the serial transplantation.
When the mean tumor volume (TV) reached approximately 170 mm^3 (10 days after implantation), mice were selected based on their TVs, and were sorted into multiple treatment groups with 8 animals per group. Per os (PO) treatment with Compound 1 (300 mg/kg for Hep3B and 500 mg/kg for LIX125) alone or in combination with lenvatinib vehicle (control) or lenvatinib (10 mg/kg or 3 mg/kg) administered once daily (QD). […]
The administration volume (0.1 mL/10 g body weight) was calculated from the individual mouse body weight (BW) before administration. Body weights were measured daily and tumor measurements were performed twice weekly. […]
(§1) The tumor volume (TV) in mm^3 was calculated according to the following formula: TV=length×width^2×0.5 length: largest diameter of tumor (mm) width: diameter perpendicular to length (mm). The tumor growth inhibition % (TGI) was calculated according to the following formula: Tumor growth inhibition % (TGI)=[(Average control TV day X−Treatment TV day X)/(Average control TV day X)]×100, where day X is any day of the treatment. […]
Data represent the mean±SEM for tumor volume (N=8). The differences in TV between groups were analyzed by multiple unpaired t-tests with significance determined using the Holm-Sidak method. […]

[2] = tested on: Hep3B xenograft (human hepatocellular cancer cell line); assay: Hep3B cells xenograft in vivo study, antitumor activity; design: species or system BALB/c nu/nu female mice; settings: for Tumor growth inhibition % (TGI): 53 days
Experimental: The cell line used, Hep3B (also called HEP3B.1-7), was sourced from American Type Culture Collection (ATCC), verified free of […] contamination and verified for identity by short tandem repeat analysis of 9 markers.
For the human hepatocellular cancer cell line Hep3B xenografts, Hep3B cells were cultured in RPMI1640 medium containing 10% FBS at 37° C. in a 5% CO2 atmosphere and kept in exponential growth phase. For harvesting, the cells were washed with PBS, incubated with 0.25% trypsin-EDTA, and suspended in a 1:1 mixture of RPMI1640 medium containing 10% FBS. To prepare the inoculum at a final concentration of 5×10^7 cells/mL, the cell were spun and resuspended in RPMI1640 and Matrigel (Corning). To generate xenografts, 0.1-mL of the inoculum was injected subcutaneously into the right flank region of BALB/c nu/nu female mice, approximately 8-week-old, weighing 18-20 g, giving a final concentration of 5×10^6 cells/mouse.
When the mean tumor volume (TV) reached approximately 170 mm^3 (10 days after implantation), mice were selected based on their TVs, and were sorted into multiple treatment groups with 8 animals per group. Per os (PO) treatment with Compound 1 (300 mg/kg for Hep3B and 500 mg/kg for LIX125) alone or in combination with lenvatinib vehicle (control) or lenvatinib (10 mg/kg or 3 mg/kg) administered once daily (QD). Additional groups included treatment with lenvatinib (10 mg/kg or 3 mg/kg) in combination with Compound 1 vehicle. (Lenvatinib vehicle includes the vehicle in which lenvatinib is administered; but, without any lenvatinib. Likewise, Compound 1 vehicle includes the vehicle in which Compound 1 is administered; but, without any Compound 1.)
The administration volume (0.1 mL/10 g body weight) was calculated from the individual mouse body weight (BW) before administration. Body weights were measured daily and tumor measurements were performed twice weekly. Mice with >20% body weight loss compared with their day 1 body weight or bearing tumors with the longest diameter […] were immediately euthanized to prevent any pain or suffering for the animal.
as §1, with “treatment. The antitumor effects of the treatment, partial regression (PR) and complete regression (CR), stable disease (SD), and progressive disease (PD) were defined as follows:” for “treatment.”
PD: 3 consecutive measurements >120% of starting volume or 3 consecutive increasing measurements from best response; SD: 3 consecutive measurements >50% and <120% of starting volume; PR: 3 consecutive measurements <50% of starting volume; CR: 3 consecutive measurements <30 mm^3.
Data represent the mean±SEM for tumor volume (N=8). The differences in TV between groups were analyzed by multiple unpaired t-tests with significance determined using the Holm-Sidak method. Statistical analyses were performed using the GraphPad Prism version 7 (GraphPad Software, La Jolla, CA).
To determine whether lenvatinib enhances tumor growth inhibition (TGI) exerted by Compound 1, the Hep3B cell line was grown as a xenograft in female nude immunocompromised mice. Tumor bearing mice were orally treated daily for 53 days with (a) 300 mg/kg Compound 1 as single agent with lenvatinib vehicle; (b)(i) 10 mg/kg lenvatinib as a single agent with Compound 1 vehicle; (b)(ii) 3 mg/kg lenvatinib as a single agent with Compound 1 vehicle; (c)(i) 300 mg/kg Compound 1 and 10 mg/kg lenvatinib in combination; or (c)(ii) 300 mg/kg Compound 1 and 3 mg/kg lenvatinib in combination.

SMILES	Tumor growth inhibition % (TGI) ([1]; Compound 1 500 mg/kg PO QD single agent, vs vehicle controls p>0.05) [%]	Tumor growth inhibition % (TGI) ([2]; Compound 1 300 mg/kg PO QD single agent with lenvatinib vehicle, vs vehicle control P<0.00001) [%]	animals with progressive disease (PD) ([2]; Compound 1 300 mg/kg single agent, PD: 3 consecutive measurements >120% of starting volume or 3 consecutive increasing measurements from best response)	Tumor growth inhibition % (TGI) ([1]; lenvatinib 3 mg/kg PO QD single agent, vs vehicle control p>0.05) [%]	Tumor growth inhibition % (TGI) ([1]; lenvatinib 10 mg/kg PO QD single agent, vs vehicle control p<0.0007) [%]	Tumor growth inhibition % (TGI) ([2]; lenvatinib 3 mg/kg PO QD single agent with Compound 1 vehicle, vs vehicle controls P>0.05) [%]	animals with progressive disease (PD) ([2]; lenvatinib 3 mg/kg single agent)	Tumor growth inhibition % (TGI) ([2]; lenvatinib 10 mg/kg PO QD single agent with Compound 1 vehicle, vs vehicle controls P<0.00005) [%]	animals with progressive disease (PD) ([2]; lenvatinib 10 mg/kg single agent)
C=CC(=O)Nc1cc(N2CCN(CC)CC2)ccc1Nc1cc(N(C)C(=O)Nc2c(Cl)c(OC)cc(OC)c2Cl)ncn1 [Compound 1, N-(2-((6-(3-(2,6-dichloro-3,5-dimethoxyphenyl)-1-methylureido)pyrimidin-4-yl)amino)-5-(4-ethylpiperazin-1-yl)phenyl)acrylamide]	60	81	6/8						
COc1cc2nccc(Oc3ccc(NC(=O)NC4CC4)c(Cl)c3)c2cc1C(N)=O [Lenvatinib, 4-[3-chloro-4-(N′-cyclopropylureido)phenoxy]-7-methoxyquinoline-6-carboxamide]				44	72	23	8/8	58	8/8
